{
  "source": "patent US20260262643A1",
  "about": "“HERBICIDAL BENZOXAZINES” (FMC CORPORATION, priority 2022, published 2026)",
  "key": {"oat, wild [1]": {"system": "oat, wild", "assay": "Test C preemergence", "type": "in vivo, Avena fatua", "details": "0 to 100 scale (0 no effect, 100 complete control)", "procedure,_shortened": "(§1)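 Pre: seeds in loam/sand, directed soil spray. Post: 1–2 leaf plants, 2–10 cm. Cmpd in non-phytotoxic solvent + surfactant. Greenhouse 10 d; visual rating vs untreated, 0 = none, 100 = complete control.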"}, "ragweed [2]": {"system": "ragweed", "assay": "Test C preemergence", "type": "in vivo, Ambrosia artemisiifolia", "details": "0 to 100 scale (0 no effect, 100 complete control)", "procedure,_shortened": "as §1"}, "ducksalad": {"system": "ducksalad", "assay": "Test D flooded paddy test", "type": "in vivo, Heteranthera limosa", "details": "250 g ai/ha, applied to paddy water, visual rating after 13 to 14 days, scale 0 to 100 (0 no effect, 100 complete control)", "procedure,_shortened": "(§2)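 2-leaf plants; flood 3 cm above soil; compound dosed into paddy water; greenhouse 13–14 d; visual rating vs controls, 0–100 (100 = complete control); dash = not tested.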"}, "oat, wild [3]": {"system": "oat, wild", "assay": "Test C postemergence", "type": "in vivo, Avena fatua", "details": "10 days", "procedure,_shortened": "as §1"}, "ryegrass, Italian [4]": {"system": "ryegrass, Italian", "assay": "Test C preemergence", "type": "in vivo, Lolium multiflorum", "details": "0 to 100 scale (0 no effect, 100 complete control)", "procedure,_shortened": "as §1"}, "blackgrass [5]": {"system": "blackgrass", "assay": "Test C preemergence", "type": "in vivo, Alopecurus myosuroides", "details": "0 to 100 scale (0 no effect, 100 complete control)", "procedure,_shortened": "as §1"}, "pigweed, palmer [6]": {"system": "pigweed, palmer", "assay": "Test C postemergence", "type": "in vivo, Amaranthus palmeri", "details": "10 days", "procedure,_shortened": "as §1"}, "kochia [7]": {"system": "kochia", "assay": "Test C postemergence", "type": "in vivo, Bassia scoparia", "details": "10 days", "procedure,_shortened": "as §1"}, "green foxtail [8]": {"system": "green foxtail", "assay": "Test C preemergence", "type": "in vivo, Setaria viridis", "details": "0 to 100 scale (0 no effect, 100 complete control)", "procedure,_shortened": "as §1"}, "galium": {"system": "galium", "assay": "Test C postemergence", "type": "in vivo, Galium aparine", "details": "10 days", "procedure,_shortened": "as §1"}, "barnyardgrass [9]": {"system": "barnyardgrass", "assay": "Test C preemergence", "type": "in vivo, Echinochloa crusgalli", "details": "0 to 100 scale (0 no effect, 100 complete control)", "procedure,_shortened": "as §1"}, "barnyardgrass [10]": {"system": "barnyardgrass", "assay": "Test D flooded paddy test", "type": "in vivo, Echinochloa crus-galli", "details": "250 g ai/ha, applied to paddy water, visual rating after 13 to 14 days, scale 0 to 100 (0 no effect, 100 complete control)", "procedure,_shortened": "as §2"}, "soybean [11]": {"system": "soybean", "assay": "Test C postemergence", "type": "in vivo, Glycine max", "details": "10 days", "procedure,_shortened": "as §1"}, "ryegrass, Italian [12]": {"system": "ryegrass, Italian", "assay": "Test C postemergence", "type": "in vivo, Lolium multiflorum", "details": "10 days", "procedure,_shortened": "as §1"}, "green foxtail [13]": {"system": "green foxtail", "assay": "Test C postemergence", "type": "in vivo, Setaria viridis", "details": "10 days", "procedure,_shortened": "as §1"}, "sedge, umbrella": {"system": "sedge, umbrella", "assay": "Test D flooded paddy test", "type": "in vivo, Cyperus difformis", "details": "250 g ai/ha, applied to paddy water, visual rating after 13 to 14 days, scale 0 to 100 (0 no effect, 100 complete control)", "procedure,_shortened": "as §2"}, "wheat [14]": {"system": "wheat", "assay": "Test C preemergence", "type": "in vivo, Triticum aestivum", "details": "0 to 100 scale (0 no effect, 100 complete control)", "procedure,_shortened": "as §1"}, "corn [15]": {"system": "corn", "assay": "Test C preemergence", "type": "in vivo, Zea mays", "details": "0 to 100 scale (0 no effect, 100 complete control)", "procedure,_shortened": "as §1"}, "horseweed": {"system": "horseweed", "assay": "Test C postemergence", "type": "in vivo, Erigeron canadensis", "details": "10 days", "procedure,_shortened": "as §1"}, "rice": {"system": "rice", "assay": "Test D flooded paddy test", "type": "in vivo, Oryza sativa", "details": "250 g ai/ha, applied to paddy water, visual rating after 13 to 14 days, scale 0 to 100 (0 no effect, 100 complete control)", "procedure,_shortened": "as §2"}, "ragweed [16]": {"system": "ragweed", "assay": "Test C postemergence", "type": "in vivo, Ambrosia artemisiifolia", "details": "10 days", "procedure,_shortened": "as §1"}, "corn [17]": {"system": "corn", "assay": "Test C postemergence", "type": "in vivo, Zea mays", "details": "10 days", "procedure,_shortened": "as §1"}, "blackgrass [18]": {"system": "blackgrass", "assay": "Test C postemergence", "type": "in vivo, Alopecurus myosuroides", "details": "10 days", "procedure,_shortened": "as §1"}, "kochia [19]": {"system": "kochia", "assay": "Test C preemergence", "type": "in vivo, Bassia scoparia", "details": "0 to 100 scale (0 no effect, 100 complete control)", "procedure,_shortened": "as §1"}, "pigweed, palmer [20]": {"system": "pigweed, palmer", "assay": "Test C preemergence", "type": "in vivo, Amaranthus palmeri", "details": "0 to 100 scale (0 no effect, 100 complete control)", "procedure,_shortened": "as §1"}, "soybean [21]": {"system": "soybean", "assay": "Test C preemergence", "type": "in vivo, Glycine max", "details": "0 to 100 scale (0 no effect, 100 complete control)", "procedure,_shortened": "as §1"}, "barnyardgrass [22]": {"system": "barnyardgrass", "assay": "Test C postemergence", "type": "in vivo, Echinochloa crusgalli", "details": "10 days", "procedure,_shortened": "as §1"}, "wheat [23]": {"system": "wheat", "assay": "Test C postemergence", "type": "in vivo, Triticum aestivum", "details": "10 days", "procedure,_shortened": "as §1"}, "[24]": {"details": "Preemergence, 500 g ai/ha, visual rating after 10 days"}, "[25]": {"details": "Test C, preemergence, 125 g ai/ha"}, "[26]": {"details": "125 g ai/ha, postemergence, 0 to 100 scale, 0 no effect, 100 complete control"}, "[27]": {"details": "Postemergence, 500 g ai/ha, visual 0 to 100 scale (0 no effect, 100 complete control)"}},
  "data": [
    {"smiles": "CC(C)c1ncn(-c2cc3c(c(C(=O)N4C[C@H](C)Oc5c(Cl)cccc54)c2)CCC3)n1", "note": "[Compound 174]", "values": [
      {"measurement": "Plant response rating, Oat, Wild", "setting": "oat, wild [1]; [24]", "value": 80},
      {"measurement": "Oat, Wild plant response rating", "setting": "oat, wild [1]; [25]", "value": 20},
      {"measurement": "Plant response rating, Ragweed", "setting": "ragweed [2]; [24]", "value": 10},
      {"measurement": "Ragweed plant response rating", "setting": "ragweed [2]; [25]", "value": 0},
      {"measurement": "Plant response rating, Ducksalad (Flood)", "setting": "ducksalad", "value": 0},
      {"measurement": "Plant response rating, Oat, Wild", "setting": "oat, wild [3]; [26]", "value": 50},
      {"measurement": "Plant response rating, Oat, Wild", "setting": "oat, wild [3]; [27]", "value": 70},
      {"measurement": "Plant response rating, Ryegrass, Italian", "setting": "ryegrass, Italian [4]; [24]", "value": 90},
      {"measurement": "Ryegrass, Italian plant response rating", "setting": "ryegrass, Italian [4]; [25]", "value": 80},
      {"measurement": "Plant response rating, Blackgrass", "setting": "blackgrass [5]; [24]", "value": 80},
      {"measurement": "Blackgrass plant response rating", "setting": "blackgrass [5]; [25]", "value": 70},
      {"measurement": "Plant response rating, Pigweed, Palmer", "setting": "pigweed, palmer [6]; [26]", "value": 90},
      {"measurement": "Plant response rating, Pigweed, Palmer", "setting": "pigweed, palmer [6]; [27]", "value": 100},
      {"measurement": "Plant response rating, Kochia", "setting": "kochia [7]; [26]", "value": 90},
      {"measurement": "Plant response rating, Kochia", "setting": "kochia [7]; [27]", "value": 100},
      {"measurement": "Plant response rating, Foxtail, Green", "setting": "green foxtail [8]; [24]", "value": 100},
      {"measurement": "Foxtail, Green plant response rating", "setting": "green foxtail [8]; [25]", "value": 100},
      {"measurement": "Plant response rating, Galium", "setting": "galium; [26]", "value": 100},
      {"measurement": "Plant response rating, Galium", "setting": "galium; [27]", "value": 100},
      {"measurement": "Plant response rating, Barnyardgrass", "setting": "barnyardgrass [9]; [24]", "value": 100},
      {"measurement": "Barnyardgrass plant response rating", "setting": "barnyardgrass [9]; [25]", "value": 80},
      {"measurement": "Plant response rating, Barnyardgrass (Flood)", "setting": "barnyardgrass [10]", "value": 0},
      {"measurement": "Plant response rating, Soybean", "setting": "soybean [11]; [26]", "value": 100},
      {"measurement": "Plant response rating, Soybean", "setting": "soybean [11]; [27]", "value": 100},
      {"measurement": "Plant response rating, Ryegrass, Italian", "setting": "ryegrass, Italian [12]; [26]", "value": 50},
      {"measurement": "Plant response rating, Ryegrass, Italian", "setting": "ryegrass, Italian [12]; [27]", "value": 70},
      {"measurement": "Plant response rating, Foxtail, Green", "setting": "green foxtail [13]; [26]", "value": 70},
      {"measurement": "Plant response rating, Foxtail, Green", "setting": "green foxtail [13]; [27]", "value": 90},
      {"measurement": "Plant response rating, Sedge, Umbrella (Flood)", "setting": "sedge, umbrella", "value": 0},
      {"measurement": "Plant response rating, Wheat", "setting": "wheat [14]; [24]", "value": 10},
      {"measurement": "Wheat plant response rating", "setting": "wheat [14]; [25]", "value": 0},
      {"measurement": "Plant response rating, Corn", "setting": "corn [15]; [24]", "value": 50},
      {"measurement": "Corn plant response rating", "setting": "corn [15]; [25]", "value": 10},
      {"measurement": "Plant response rating, Horseweed", "setting": "horseweed; [26]", "value": 0},
      {"measurement": "Plant response rating, Horseweed", "setting": "horseweed; [27]", "value": 30},
      {"measurement": "Plant response rating, Rice (Flood)", "setting": "rice", "value": 0},
      {"measurement": "Plant response rating, Ragweed", "setting": "ragweed [16]; [26]", "value": 60},
      {"measurement": "Plant response rating, Ragweed", "setting": "ragweed [16]; [27]", "value": 70},
      {"measurement": "Plant response rating, Corn", "setting": "corn [17]; [26]", "value": 70},
      {"measurement": "Plant response rating, Corn", "setting": "corn [17]; [27]", "value": 80},
      {"measurement": "Plant response rating, Blackgrass", "setting": "blackgrass [18]; [26]", "value": 60},
      {"measurement": "Plant response rating, Blackgrass", "setting": "blackgrass [18]; [27]", "value": 90},
      {"measurement": "Plant response rating, Kochia", "setting": "kochia [19]; [24]", "value": 90},
      {"measurement": "Kochia plant response rating", "setting": "kochia [19]; [25]", "value": 70},
      {"measurement": "Plant response rating, Pigweed, Palmer", "setting": "pigweed, palmer [20]; [24]", "value": 100},
      {"measurement": "Pigweed, Palmer plant response rating", "setting": "pigweed, palmer [20]; [25]", "value": 100},
      {"measurement": "Plant response rating, Soybean", "setting": "soybean [21]; [24]", "value": 100},
      {"measurement": "Soybean plant response rating", "setting": "soybean [21]; [25]", "value": 70},
      {"measurement": "Plant response rating, Barnyardgrass", "setting": "barnyardgrass [22]; [26]", "value": 50},
      {"measurement": "Plant response rating, Barnyardgrass", "setting": "barnyardgrass [22]; [27]", "value": 60},
      {"measurement": "Plant response rating, Wheat", "setting": "wheat [23]; [26]", "value": 20},
      {"measurement": "Plant response rating, Wheat", "setting": "wheat [23]; [27]", "value": 40}
    ]}
  ]
}
